Data on five compounds can be found in paper PMC6017319, “Potent GH20 N-Acetyl-β-D-hexosaminidase Inhibitors: N-Substituted 3-acetamido-4-amino-5-hydroxymethyl-cyclopentanediols” (Molecules : A Journal of Synthetic Chemistry and Natural …, 2018).

Test [1] addresses T1, human lysosomal N-acetyl-β-hexosaminidase A (Homo sapiens, UniProt P06865).
T1 construct: endogenous in cells; host or cells: human skin fibroblasts (wild type), cell homogenate
In words: Human N-acetyl-β-hexosaminidase A activity in fibroblast homogenate (4-MU N-acetyl-β-glucosaminide-6-sulfate substrate). The format is biochemical. Conditions: normal human skin fibroblast homogenate, pH 4.4, 37 °C, 60 min; read-out: IC50 with human lysosomal N-acetyl-β-D-hexosaminidase A. An excerpt: All cells used in this study were between the third and nineteenth passages.

Test [2] addresses T2, Streptomyces plicatus N-acetyl-β-hexosaminidase (SpHex) (Streptomyces plicatus, UniProt O85361).
T2 construct: made in house; host or cells: E. coli
T2 sequence (O85361 1-506): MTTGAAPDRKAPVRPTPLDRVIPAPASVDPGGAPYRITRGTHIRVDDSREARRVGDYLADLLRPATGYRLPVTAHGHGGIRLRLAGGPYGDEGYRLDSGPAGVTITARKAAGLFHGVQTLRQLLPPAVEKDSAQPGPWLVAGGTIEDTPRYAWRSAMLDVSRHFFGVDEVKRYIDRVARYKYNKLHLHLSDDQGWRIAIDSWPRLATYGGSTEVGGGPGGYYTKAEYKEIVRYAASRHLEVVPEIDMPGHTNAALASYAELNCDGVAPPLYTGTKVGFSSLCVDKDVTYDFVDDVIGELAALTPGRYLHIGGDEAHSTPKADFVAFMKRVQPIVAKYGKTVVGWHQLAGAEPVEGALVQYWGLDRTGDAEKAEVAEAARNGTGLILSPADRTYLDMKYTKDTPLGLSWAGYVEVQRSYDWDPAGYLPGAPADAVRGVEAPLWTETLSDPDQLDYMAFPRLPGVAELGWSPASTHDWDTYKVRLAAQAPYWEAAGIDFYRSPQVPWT
Nature of the test: SpHex kinetic inhibition assay (4-nitrophenyl N-acetyl-β-D-glucosaminide substrate, competitive model). In kind it is biochemical. The method, then: Streptomyces plicatus N-acetyl-β-hexosaminidase, SpHex, was expressed and purified in E. coli as described previously. Kinetic studies were performed at 25 °C in the assay buffer (sodium phosphate (50 mM), sodium citrate (50 mM), NaCl (100 mM), BSA (2 mg/mL), pH = 6.0). The enzyme was incubated with different concentrations of the inhibitors for 2–5 min prior to the start of the reaction by addition of the substrate (4-nitrophenyl N-acetyl-β-D-glucosaminide) and the initial rates were measured by monitoring the increase in absorbance at 405 nm for three to five minutes using a microplate reader (Synergy H1, BioTek, VT, USA). Ki determinations were performed using two or three different substrate concentrations. For each one of these substrate concentrations a range of five to eight different inhibitor concentrations bracketing the ultimately determined Ki value were used. Dixon plots (1/rate vs [I]) were constructed to validate the use of a competitive inhibition model. The data were then fit to a competitive inhibition model using non-linear regression analysis with GraFit 7.0 (Erithacus Software, UK). Assays were done twice using enzyme concentrations of 0.3 nM and 0.03 nM respectively in order to check compliance with the assumptions of Michaelis Menten kinetics ([E] << [I]). In addition, for compound 25, the assays were done a third time with the concentration of enzyme lowered to 0.003 nM. In all cases, the Ki values were in good agreement.

Test [3] deals with T2, Streptomyces plicatus N-acetyl-β-hexosaminidase (SpHex). Further details: method as in PMID 11828466. Conditions: with the same enzyme; read-out: Ki with SpHex (reference compound); cited from earlier work.

Read-outs that look alike come from different tables or passages of the source.

As usually defined, the IC50 is the concentration that gives 50% inhibition. What is called Ki is the equilibrium dissociation constant of an inhibitor or competing ligand from its target.

T1 sequence (P06865 89-529): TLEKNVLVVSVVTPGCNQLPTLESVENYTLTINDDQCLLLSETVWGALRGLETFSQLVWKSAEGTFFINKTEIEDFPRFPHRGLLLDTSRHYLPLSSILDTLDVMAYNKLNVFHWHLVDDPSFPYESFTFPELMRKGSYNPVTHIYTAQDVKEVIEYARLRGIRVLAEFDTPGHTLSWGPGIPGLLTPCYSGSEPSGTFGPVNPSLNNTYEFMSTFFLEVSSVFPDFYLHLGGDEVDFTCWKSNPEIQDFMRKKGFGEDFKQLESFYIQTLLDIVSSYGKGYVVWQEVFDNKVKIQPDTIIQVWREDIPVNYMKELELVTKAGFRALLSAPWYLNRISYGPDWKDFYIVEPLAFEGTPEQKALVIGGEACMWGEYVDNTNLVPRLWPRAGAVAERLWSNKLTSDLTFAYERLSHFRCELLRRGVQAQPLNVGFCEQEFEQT
T1 sequence (P07686 122-311 partner limits assumed): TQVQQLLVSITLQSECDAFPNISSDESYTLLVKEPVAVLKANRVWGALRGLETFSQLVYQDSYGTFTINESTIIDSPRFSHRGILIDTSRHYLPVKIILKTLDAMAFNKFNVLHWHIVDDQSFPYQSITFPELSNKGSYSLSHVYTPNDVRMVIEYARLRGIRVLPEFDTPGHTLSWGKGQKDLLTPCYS
T1 sequence (P07686 315-556 partner limits assumed): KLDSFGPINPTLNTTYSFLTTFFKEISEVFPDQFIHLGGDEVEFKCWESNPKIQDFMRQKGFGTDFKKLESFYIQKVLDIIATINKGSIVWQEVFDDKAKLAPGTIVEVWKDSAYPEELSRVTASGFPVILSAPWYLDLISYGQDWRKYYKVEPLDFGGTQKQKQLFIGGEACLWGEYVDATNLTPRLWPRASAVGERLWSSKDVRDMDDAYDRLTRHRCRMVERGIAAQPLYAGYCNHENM

`CC(=O)NC1C(O)C(O)C(CO)C1NCCCCCCNS(=O)(=O)c1cccc2c(N(C)C)cccc12` [compound 25, (1S,2R,3S,4R,5R)-N-(6-Dansylamino)hexyl-3-acetamido-4-amino-5-hydroxymethyl-cyclopentanetriol]: the IC50 in test [1] was determined as 300 nM. Further, the Ki in test [2] amounted to 0.06 nM.
Take `CCCCCCNC1C(CO)C(O)C(O)C1NC(C)=O` (centres unmarked) [compound 21]: in test [1], the IC50 stood at 880 nM. Also, the Ki in test [2] is 0.6 nM.
Regarding `COC(=O)CCCCCNC1C(CO)C(O)C(O)C1NC(C)=O` [compound 22, (1S,2R,3S,4R,5R)-N-(Methoxycarbonyl)pentyl-3-acetamido-4-amino-5-hydroxymethyl-cyclopentanetriol], in test [2], the Ki amounted to 0.7 nM.
Regarding `CC(=O)NC1CNC(CO)C(O)C1O` (centres unmarked) [compound 1, 2-acetamido-1,2-dideoxynojirimycin, reference compound], the IC50 in test [1] worked out at 31000 nM. In addition, in test [3], the Ki is 80 µM.
`CC(=O)NC1C(N)C(CO)C(O)C1O` (centres unmarked) [compound 20]: in test [2] (25 °C, pH 6.0, competitive inhibition model, read-out: Ki-values with SpHex), the Ki came out at 0.7 nM.
